Measured values published in patent US9808441B2, “Dietary supplement containing alkaline electrolyte buffers” (priority 1999, dated 2017).

Assay: pH of dietary/therapeutic supplements, alkaline minerals and supplement compositions
Assay type: physicochemical
Details: for pH of alkaline mineral: lower value, 'and up depending upon the form' of the mineral
Text: It is noted that wherein pH is referred to for a dry or non-liquid material, it means where the material is mixed with a liquid, such as in the body of a user.
When an individual takes any one of these supplements with the meal, the body begins the digestion process of the supplement and the meal and the body begins to try to eliminate resulting waste due to needed raise in pH and to buffer the system. The body will utilize any buffer that can be found within the food, supplement, and after that will begin to draw the alkaline minerals from within the system itself.

[1] = dietary or therapeutic supplement prior to combination with alkaline minerals (table)

Row | Compound | pH [1] | pH (supplement or ingredient alone, without alkaline electrolytes (text; typical/normal value)) | pH of alkaline mineral
1 | O=C1O[C@H]([C@@H](O)CO)C(O)=C1O [Ascorbic Acid] | 3.23 | about 3.23 | 
2 | O=C(O)c1cccnc1 [Niacin] | 3.4 |  | 
3 | [Zn] [Zinc] | 3.5 |  | 
4 | [Ca+2] [calcium] |  |  | ≥ 8.28

Results, then the compound that gave them:

Row | pH [1] | pH (supplement or ingredient alone, without alkaline electrolytes (text; typical/normal value)) | pH of alkaline mineral | Compound
5 | 5.5 |  |  | N[C@H]1C(O)O[C@H](CO)[C@@H](O)[C@@H]1O (stereo partly drawn) [Glucosamine]
6 |  |  | ≥ 7.20 | [Mg+2] [magnesium]
7 |  |  | ≥ 9.69 | [K+] [potassium]
8 | 6.1 |  |  | Vitamin E
